In the SangsterLogP compilation:

Conditions: not given

First: COCC(=O)N(c1c(C)cccc1C)N1CCOC1=O
Second: COc1ccsc1CN(C(=O)CCl)c1c(C)cccc1C
The logP of the first is lower: 0.73 for the first, 3.53 for the second.

Going from `CCOP(=S)(OCC)OC(Cl)C(Cl)(Cl)Cl` (configuration not stated) to `CCCCCC(C)OC(=O)COc1ccc(Cl)c2cccnc12` (configuration not stated), the logP rises from 4.59 to 5.03.

First: CC(Oc1ccc(Oc2cnc3cc(Cl)ccc3n2)cc1)C(=O)OCC1CCCO1 (configuration not stated)
Second: C#CCOC(=O)[C@@H](C)Oc1ccc(Oc2ncc(Cl)cc2F)cc1
The logP of the first is higher: 4.32 for the first, 3.9 for the second.

`CC(C)(C)C(O)/C(=C\c1ccc(Cl)cc1)n1cncn1` (configuration not stated) and `FC(F)C(F)(F)OCC(Cn1cncn1)c1ccc(Cl)cc1Cl` (configuration not stated) are within 0.2 log units of each other in logP: 3.67 for the first, 3.53 for the second.

Going from `CCOC(=O)Cn1c(=O)sc2cccc(Cl)c21` to `Cc1ccc2nc3sc(=O)sc3nc2c1`, the logP rises from 2.5 to 3.78.

Compared with `CNC(=O)CSP(=O)(OC)OC`, `C#CCC1=C(C)C(OC(=O)C2C(C=C(C)C)C2(C)C)CC1=O` (configuration not stated) is higher in logP: -0.75 for the first, 4.49 for the second.

Compared with `O=C(NC(=O)c1c(F)cccc1F)Nc1cc(Cl)c(OC(F)(F)C(F)C(F)(F)F)cc1Cl` (configuration not stated), `CCN(Cc1c(F)cccc1Cl)c1c([N+](=O)[O-])cc(C(F)(F)F)cc1[N+](=O)[O-]` is higher in logP: 5.12 for the first, 5.45 for the second.

Compared with `O=C(Nc1ccccc1)Nc1ccnc(Cl)c1`, `CCCN(CCC)C(=O)SCc1ccccc1` is higher in logP: 3.2 for the first, 4.65 for the second.

First: COC(=O)c1c(C(F)F)nc(C(F)(F)F)c(C2=NCCS2)c1CC(C)C
Second: CCCN(CCC)c1c([N+](=O)[O-])cc(C(F)(F)F)c(N)c1[N+](=O)[O-]
The logP of the first is lower: 3.89 for the first, 4.1 for the second.

First: Clc1ccc(C2(Cn3cncn3)CC(Br)CO2)c(Cl)c1 (configuration not stated)
Second: [O-][n+]1nc(-n2ccnc2)nc2ccc(Cl)cc21
The logP of the first is higher: 3.24 for the first, 2.04 for the second.

First: C/C(=N\C#N)N(C)Cc1ccc(Cl)nc1
Second: CCS(=O)(=O)Oc1ccc2c(c1)C(C)(C)CO2
The logP of the first is lower: 0.8 for the first, 2.41 for the second.

First: CC1=C(C)S(=O)(=O)CCS1(=O)=O
Second: CC1(C)OC(c2ccco2)CN1C(=O)C(Cl)Cl (configuration not stated)
The logP of the first is lower: -0.17 for the first, 2.12 for the second.

Compared with `CC1(C)[C@H](C(=O)O[C@H](C#N)c2cccc(Oc3ccccc3)c2)[C@@H]1/C=C\C(=O)OC(C(F)(F)F)C(F)(F)F`, `CCCCCCCCn1sccc1=O` is lower in logP: 5.26 for the first, 2.45 for the second.

Same assay, conditions: pH 2.0

Compound `COc1cc(OC)nc(NC(=O)NS(=O)(=O)N(C)S(C)(=O)=O)n1` has a logD of 1.63.

Same assay, conditions: pH 5.0

Compared with `Cc1cc(C2CC2)nc(Nc2ccccc2)n1`, `CCS(=O)(=O)c1cccnc1S(=O)(=O)NC(=O)Nc1nc(OC)cc(OC)n1` is lower in logD: 3.9 for the first, 0.29 for the second.

Same assay, conditions: pH 5.6

Compound `O=c1c2cc(F)ccc2nc(-n2cncn2)n1-c1ccc(Cl)cc1Cl` has a logD of 3.24.

Same assay, conditions: pH 6.1

`Cc1cc(C)nc(Nc2ccccc2)n1` showed a logD of 2.84.

Same assay, conditions: pH 6.5

Compared with `CNC(=O)ON=C(C)C(C)S(C)(=O)=O` (configuration not stated), `COc1ccc(C(O)(c2cncnc2)C2CC2)cc1` (configuration not stated) is higher in logD: 1.11 for the first, 1.91 for the second.

Same assay, conditions: pH 7.0

Compared with `CC(C1CC1)C(O)(Cn1cncn1)c1ccc(Cl)cc1` (configuration not stated), `CC(C)C(O)(c1ccc(OC(F)(F)F)cc1)c1cncnc1` (configuration not stated) is higher in logD: 2.91 for the first, 3.34 for the second.

Going from `CCOC(=O)CSc1nc(C(C)(C)C)nn1C(=O)N(C)C` to `CCOC(=O)CCN(SN(C)C(=O)Oc1cccc2c1OC(C)(C)C2)C(C)C`, the logD rises from 2.69 to 4.3.

Going from `CN1CSC(=S)N(C)C1` to `COc1cc(OC)n2nc(S(=O)(=O)Nc3c(Cl)ccc(C)c3Cl)nc2n1`, the logD rises from 1.4 to 2.46.

Same assay, conditions: pH 7.3

For `O=C(Nc1ccccc1)Nc1cnns1`, the logD was 1.77.

Conditions: not given
Remark: another data set of the same source

Going from `COc1ccc(/C(=C\C(=O)N2CCOCC2)c2ccc(Cl)cc2)cc1OC` to `CC(Oc1ccc(Oc2ncc(Cl)cc2Cl)cc1)C(=O)N1CCCO1` (configuration not stated), the logP rises from 2.73 to 3.36.

First: COP(=S)(OC)Oc1ccc(Sc2ccc(OP(=S)(OC)OC)cc2)cc1
Second: COP(=S)(OC)Oc1ccc(C#N)cc1
The logP of the first is higher: 4.91 for the first, 2.65 for the second.

Compared with `O=c1oc2ccccc2c(O)c1C1CC(c2ccc(OCc3ccc(C(F)(F)F)cc3)cc2)Cc2ccccc21` (configuration not stated), `CCOc1ccc(C2(C(=O)OC(C#N)c3cccc(Oc4ccccc4)c3)CC2(Cl)Cl)cc1` (configuration not stated) is lower in logP: 4.7 for the first, 4.19 for the second.

`CCOC(=O)[C@@H](C)Oc1ccc(Oc2nc3ccc(Cl)cc3o2)cc1` and `CCCCOC(=O)[C@@H](C)Oc1ccc(Oc2ccc(C(F)(F)F)cn2)cc1` are within 0.2 log units of each other in logP: 4.58 for the first, 4.5 for the second.

Going from `C=CCN(CC=C)C(=O)C(Cl)Cl` to `C=CCNC(=O)CN(CC=C)C(=O)C(Cl)Cl`, the logP falls from 1.84 to 1.

Compared with `CC1=NNC(=O)N(/N=C/c2cccnc2)C1`, `Nc1cnn(-c2ccccc2)c(=O)c1Cl` is higher in logP: -0.18 for the first, 1.19 for the second.

First: CCSCCSP(=S)(OC)OC
Second: CCSCCSP(=O)(OC)OC
The logP of the first is higher: 3.46 for the first, 1.32 for the second.

Compared with `O=S(=O)(c1ccc(Cl)cc1)c1cc(Cl)c(Cl)cc1Cl`, `O=[N+]([O-])c1ccc(NS(=O)(=O)c2ccc(Cl)c(C(F)(F)F)c2)c(Cl)c1` is lower in logP: 4.61 for the first, 2.4 for the second.

Going from `CC(C)NC(=O)N1CC(=O)N(c2cc(Cl)cc(Cl)c2)C1=O` to `CCOC(=O)C1(C)OC(=O)N(c2cc(Cl)cc(Cl)c2)C1=O` (configuration not stated), the logP rises from 3 to 3.3.

First: CN(C)C(=O)Nc1cc(C(C)(C)C)on1
Second: CN(C)C(=O)Nc1ccc(-n2nc(C(C)(C)C)oc2=O)c(Cl)c1
The logP of the first is lower: 1.98 for the first, 2.51 for the second.

Compared with `Cl/C=C\CCl`, `CCSC(C)CC1CC(=O)C(/C(CC)=N/OC/C=C/Cl)=C(O)C1` (configuration not stated) is higher in logP: 2.06 for the first, 4.19 for the second.

First: CCCSP(=O)(OCC)Oc1ccc(Br)cc1Cl (configuration not stated)
Second: CCN(CC)C(=O)SCc1ccccc1Cl
The logP of the first is higher: 4.44 for the first, 3.43 for the second.

Compared with `CCCCCOC(=O)COc1cc(N2C(=O)C3=C(CCCC3)C2=O)c(F)cc1Cl`, `CC(C)=CC1C(C(=O)OCN2C(=O)C3=C(CCCC3)C2=O)C1(C)C` (configuration not stated) is lower in logP: 4.99 for the first, 4.49 for the second.

Going from `CC1(C)CC/C(=C\c2ccc(Cl)cc2)C1(O)Cn1cncn1` (configuration not stated) to `CC1(C)CCC(Cc2ccc(Cl)cc2)C1(O)Cn1cncn1` (configuration not stated), the logP rises from 3.29 to 3.93.

First: CN(C)C(=O)Nc1ccc(Cl)c(Cl)c1
Second: CCC(=O)Nc1ccc(Cl)c(Cl)c1
The logP of the first is lower: 2.85 for the first, 3.3 for the second.

First: CON(C)C(=O)Nc1ccc(Br)cc1
Second: CC(C)OC(=O)C(O)(c1ccc(Br)cc1)c1ccc(Br)cc1
The logP of the first is lower: 2.41 for the first, 5.4 for the second.

Compared with `OC1(c2ccc(Cl)cc2)CCCCCC1n1cncn1` (configuration not stated), `CC(C)C1CCC(Cc2ccc(Cl)cc2)C1(O)Cn1cncn1` (configuration not stated) is higher in logP: 3.02 for the first, 4.21 for the second.

Compared with `NC(=O)c1nc(-c2ccccc2)n(-c2ccc(Cl)c(COCC(F)(F)C(F)(F)F)c2)n1`, `O=C(NC(=O)c1ccccc1Cl)Nc1ccc(OC(F)(F)F)cc1` is higher in logP: 3.27 for the first, 4.91 for the second.

First: CCOCN(C(=O)CCl)c1c(C)cccc1CC
Second: C/C=C\COCN(C(=O)CCl)c1c(CC)cccc1CC
The logP of the first is lower: 3.03 for the first, 3.51 for the second.

First: CCOC(=O)C(Cl)Cc1cc(-n2nc(C)n(C(F)F)c2=O)c(F)cc1Cl (configuration not stated)
Second: CCOCCOC(=O)C(C)Oc1ccc(Oc2ncc(C(F)(F)F)cc2Cl)cc1 (configuration not stated)
The logP of the first is lower: 3.36 for the first, 4.33 for the second.

Compared with `O=CNC(N1CCN(C(NC=O)C(Cl)(Cl)Cl)CC1)C(Cl)(Cl)Cl` (configuration not stated), `O=C1C2CC=CCC2C(=O)N1SC(Cl)(Cl)Cl` (configuration not stated) is higher in logP: 2.2 for the first, 2.78 for the second.

Compared with `CCOP(=O)(SC(C)CC)SC(C)CC` (configuration not stated), `CCOP(=S)(OCC)Oc1nc(Cl)n(C(C)C)n1` is lower in logP: 3.9 for the first, 2.99 for the second.

`COCCN(C(=O)CCl)c1c(C)cccc1C` and `COCC(C)N(C(=O)CCl)c1c(C)csc1C` (configuration not stated) are within 0.2 log units of each other in logP: 2.2 for the first, 2.15 for the second.

Going from `CCCCOC(=O)N(C)SN(C)C(=O)Oc1cccc2c1OC(C)(C)C2` to `CCCOC(=O)c1ccc(C(=O)OCCC)nc1`, the logP falls from 4.6 to 3.57.

Going from `CC1(C)CON(Cc2ccccc2Cl)C1=O` to `CCSCc1ccccc1OC(=O)NC`, the logP falls from 2.5 to 2.04.

Going from `CCNP(=S)(OC)O/C(C)=C/C(=O)OC(C)C` (configuration not stated) to `COC(C)(C)CCCC(C)C/C=C/C(C)=C/C(=O)OC(C)C` (configuration not stated), the logP rises from 3.82 to 5.21.

Compared with `CC1COc2ccccc2N1C(=O)C(Cl)Cl` (configuration not stated), `O=C1c2ccccc2C(=O)N1SC(Cl)(Cl)Cl` is higher in logP: 2.7 for the first, 3.11 for the second.

Going from `CNC(=O)ON=C(C)C(C)SC` (configuration not stated) to `COC(=O)C(C)N(C(=O)c1ccco1)c1c(C)cccc1C` (racemic), the logP rises from 1.11 to 2.7.

First: CCOP(=S)(OCC)Oc1ccc(=O)n(-c2ccccc2)n1
Second: CCOC(=O)c1cn2nc(OP(=S)(OCC)OCC)cc2nc1C
The logP of the first is lower: 3.2 for the first, 3.8 for the second.

Compared with `C[C@@H](Oc1ccc(Oc2ccc(C#N)cc2F)cc1)C(=O)O`, `CC1(C)C(C=C(Cl)Cl)C1C(=O)OC(C#N)c1ccc(F)c(Oc2ccccc2)c1` (configuration not stated) is higher in logP: 3.31 for the first, 5.93 for the second.

Compared with `O=C1C(Cl)=C(Cl)C(=O)N1c1ccc(F)cc1`, `Clc1ccccc1-c1nnc(-c2ccccc2Cl)nn1` is higher in logP: 2.3 for the first, 3.1 for the second.

Compared with `COC(=O)c1c(Cl)c(Cl)c(C(=O)OC)c(Cl)c1Cl`, `COP(=O)(OC)OC1=C(Cl)C2C=CCC12` (configuration not stated) is lower in logP: 4.28 for the first, 2.32 for the second.

Compared with `CCC1OCC(COc2ccc(Oc3ccccc3)cc2)O1` (configuration not stated), `CC1(C)[C@H](C(=O)O[C@H](C#N)c2cccc(Oc3ccccc3)c2)[C@@H]1C(Br)C(Br)(Br)Br` (some centres not stated) is higher in logP: 4.3 for the first, 5 for the second.

Compared with `C=CCCCOC(=O)C(CC)N(Cc1ccco1)C(=O)n1ccnc1` (configuration not stated), `CCN(CC)C(=O)C(C)Oc1cccc2ccccc12` (configuration not stated) is higher in logP: 3 for the first, 3.3 for the second.

Compared with `CC(C)c1cc(Oc2ccccc2)cc(C(C)C)c1NC(=S)NC(C)(C)C`, `CC(C)N(Cc1ccccc1)C(=O)C(C)(C)C` is lower in logP: 5.76 for the first, 3 for the second.

`CCCCC(CC)CN1C(=O)C2C3C=CC(C3)C2C1=O` (configuration not stated) and `CCCCC(CC)N1C(=O)C2C3C=CC(C3)C2C1=O` (configuration not stated) are within 0.2 log units of each other in logP: 3.7 for the first, 3.8 for the second.

Going from `CCOC1Oc2ccc(OS(C)(=O)=O)cc2C1(C)C` (configuration not stated) to `CC(C)=CC1C(C(=O)OCc2coc(Cc3ccccc3)c2)C1(C)C` (configuration not stated), the logP rises from 2.7 to 5.4.

Going from `C#CCOS(=O)OC1CCCCC1Oc1ccc(C(C)(C)C)cc1` (configuration not stated) to `CC(C)N1C(=O)N(c2ccccc2)CS/C1=N\C(C)(C)C`, the logP rises from 3.73 to 4.3.

Compared with `CCOc1nc(C(Cl)(Cl)Cl)ns1`, `CCNc1nc(Cl)nc(NCC)n1` is lower in logP: 3.37 for the first, 2.1 for the second.

Compared with `O=C(Nc1ccc(Cl)cc1C(O)c1ccccc1)c1ccncc1` (configuration not stated), `Cc1cnc(C2=NC(C)(C(C)C)C(=O)N2)c(C(=O)O)c1` (configuration not stated) is lower in logP: 3.13 for the first, 0.39 for the second.

First: C/C=C/C(=O)Oc1c(C(C)CCCCCC)cc([N+](=O)[O-])cc1[N+](=O)[O-] (configuration not stated)
Second: CC(C)OC(=O)C(C(=O)OC(C)C)=C1SCCS1
The logP of the first is higher: 4.54 for the first, 3.3 for the second.
